Among the data in patent publication EP1799816B1, “NOVEL LACCASE ENZYME AND USE THEREOF” (AB Enzymes Oy, priority 2004, dated 2006) are kcat and Km values, retold here.

Where two headings read alike, the source gives them in different places.

Experiment [1] addresses T1, recombinant Thielavia arenaria TaLcc1 laccase (rTaLcc1) expressed in Trichoderma reesei, SEQ ID NO: 12 (Canariomyces arenarius, UniProt F6N9E7).
T1 sequence (F6N9E7 22-604): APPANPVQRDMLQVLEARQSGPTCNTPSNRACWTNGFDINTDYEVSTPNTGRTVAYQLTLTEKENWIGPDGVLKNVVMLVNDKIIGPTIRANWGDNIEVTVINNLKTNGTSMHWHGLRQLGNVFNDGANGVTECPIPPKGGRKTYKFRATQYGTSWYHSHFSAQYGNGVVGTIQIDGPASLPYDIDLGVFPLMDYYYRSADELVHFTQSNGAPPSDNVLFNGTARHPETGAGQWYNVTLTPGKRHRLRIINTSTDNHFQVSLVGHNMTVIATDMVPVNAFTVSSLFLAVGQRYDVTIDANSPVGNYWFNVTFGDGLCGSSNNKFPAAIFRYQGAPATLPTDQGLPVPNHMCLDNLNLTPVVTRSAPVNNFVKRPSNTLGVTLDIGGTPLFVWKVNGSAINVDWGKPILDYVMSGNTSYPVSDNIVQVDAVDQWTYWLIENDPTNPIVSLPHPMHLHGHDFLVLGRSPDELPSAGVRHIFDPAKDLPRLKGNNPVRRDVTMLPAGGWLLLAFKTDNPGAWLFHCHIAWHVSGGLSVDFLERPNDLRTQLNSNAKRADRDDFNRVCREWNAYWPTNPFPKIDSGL
Type of experiment: biochemical. As for the experimental part:
(§1) On syringaldazin and DMP 40 mM MES buffer, pH 6 and 25 mM succinate bluffer, All activity assays were carried out at 25°C. Kinetic parameters were estimated by a nonlinear regression curve fit. The values were compared to those of Melanocarpus albomyces MaL, laccase.

The target of experiment [2] is T2, Melanocarpus albomyces laccase MaL (Melanocarpus albomyces, UniProt Q70KY3).
T2 sequence (Q70KY3 51-609): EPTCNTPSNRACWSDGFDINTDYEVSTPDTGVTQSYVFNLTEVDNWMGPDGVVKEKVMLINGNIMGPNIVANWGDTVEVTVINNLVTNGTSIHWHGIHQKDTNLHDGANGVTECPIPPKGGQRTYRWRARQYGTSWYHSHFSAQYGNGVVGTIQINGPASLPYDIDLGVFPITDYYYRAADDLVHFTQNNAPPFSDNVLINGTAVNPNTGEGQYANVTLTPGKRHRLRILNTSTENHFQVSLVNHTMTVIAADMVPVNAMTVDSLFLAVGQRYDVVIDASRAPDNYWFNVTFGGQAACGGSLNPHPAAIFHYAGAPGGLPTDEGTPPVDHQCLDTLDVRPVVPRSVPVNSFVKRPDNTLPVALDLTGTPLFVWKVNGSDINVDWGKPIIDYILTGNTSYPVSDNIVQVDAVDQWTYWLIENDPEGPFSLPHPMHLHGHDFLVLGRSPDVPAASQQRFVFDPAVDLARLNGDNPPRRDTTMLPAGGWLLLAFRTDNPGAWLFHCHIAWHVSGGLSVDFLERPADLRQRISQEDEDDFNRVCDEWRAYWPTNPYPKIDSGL
The experiment can be described thus: Kinetic parameters (Km, kcat, kcat/Km) on laccase substrates. Type of experiment: biochemical. The conditions noted are these: substrate ABTS; 25 mM succinate buffer, pH 4.5, 25°C; comparison enzyme. As for the experimental part: as §1

For `CCn1c(=NN=c2sc3cc(S(=O)(=O)O)ccc3n2CC)sc2cc(S(=O)(=O)O)ccc21` [ABTS, 2,2'azinobis-3-ethylbenzthiazole-6-sulphonate], the kcat in experiment [1] (substrate ABTS, 25 mM succinate buffer, pH 4.5, 25°C) was 68.83 s⁻¹. Also, in experiment [2], the Km was 270 µM and the kcat is 78.17 s⁻¹.

Take `COc1cc(C=NN=Cc2cc(OC)c(O)c(OC)c2)cc(OC)c1O` [Syringaldazin, syringaldazine]: in experiment [1] (substrate Syringaldazin, 25°C, buffer unclear (40 mM MES buffer, pH 6 / 25 mM succinate buffer)), the kcat was found to be 32.33 s⁻¹.
